Data from patent US11358969B2, “Indole AHR inhibitors and uses thereof” (Ikena Oncology, Inc., priority 2017, dated 2022).

Molecular target: T1, AHR (UniProt P35869)
T1 construct: IC50
T1 sequence (P35869 1-848): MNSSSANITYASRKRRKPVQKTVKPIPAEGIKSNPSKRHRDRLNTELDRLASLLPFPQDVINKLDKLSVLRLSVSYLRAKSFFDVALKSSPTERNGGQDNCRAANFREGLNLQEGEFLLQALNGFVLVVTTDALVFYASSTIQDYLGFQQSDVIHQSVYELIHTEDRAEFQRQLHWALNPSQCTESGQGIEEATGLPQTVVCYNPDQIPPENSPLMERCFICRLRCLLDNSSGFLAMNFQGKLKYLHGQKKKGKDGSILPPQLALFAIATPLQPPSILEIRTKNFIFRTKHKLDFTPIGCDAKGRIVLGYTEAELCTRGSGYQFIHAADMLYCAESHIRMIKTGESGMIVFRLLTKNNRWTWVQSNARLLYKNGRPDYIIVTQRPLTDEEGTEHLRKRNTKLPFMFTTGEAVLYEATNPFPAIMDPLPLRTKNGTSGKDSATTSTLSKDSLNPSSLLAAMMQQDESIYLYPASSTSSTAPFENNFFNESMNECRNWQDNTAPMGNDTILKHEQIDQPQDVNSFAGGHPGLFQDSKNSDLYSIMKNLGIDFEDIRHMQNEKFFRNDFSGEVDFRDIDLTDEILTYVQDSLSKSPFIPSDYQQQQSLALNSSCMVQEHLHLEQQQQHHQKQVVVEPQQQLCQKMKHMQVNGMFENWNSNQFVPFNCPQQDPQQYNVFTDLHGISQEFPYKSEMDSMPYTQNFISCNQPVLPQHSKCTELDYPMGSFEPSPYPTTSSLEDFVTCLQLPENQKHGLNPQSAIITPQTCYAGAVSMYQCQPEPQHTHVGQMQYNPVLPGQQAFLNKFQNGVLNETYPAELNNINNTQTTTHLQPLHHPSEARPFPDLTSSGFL
Assay: DRE-Luciferase Reporter Assay (Alternate Method) (Example 1B)
Type: cell-based, murine or human
Settings: cell line and AHR activating ligand not specified

SMILES | IC50 [nM]
Cc1cnn2c(OCCc3c[nH]c4ccccc34)cc(-c3cncc(F)c3)nc12 [I-184] | > 1500
Cc1cnn2c(N[C@@H](CO)Cc3c[nH]c4ccccc34)cc(-c3cncc(F)c3)nc12 [I-185] | > 1500
Cc1cnn2c(NCCc3c[nH]c4cccnc34)nc(-c3cncc(F)c3)nc12 [I-186, 2-(5-Fluoro-3-pyridyl)-8-methyl-N-[2-(1H-pyrrolo[3,2-b]pyridin-3-yl)ethyl]pyrazolo[1,5-a][1,3,5]triazin-4-amine] | 500 to 1000
Cc1cnn2c(N[C@H](Cc3c[nH]c4ccccc34)C(=O)N(C)C)cc(-c3cncc(F)c3)nc12 [I-187a] | > 1500
Cc1cnn2c(N[C@@H](Cc3c[nH]c4ccccc34)C(=O)N(C)C)cc(-c3cncc(F)c3)nc12 [I-187b, (2S)-2-[[5-(5-Fluoro-3-pyridyl)-3-methyl-pyrazolo[1,5-a]pyrimidin-7-yl]amino]-3-(1H-indol-3-yl)-N,N-dimethyl-propanamide] | > 1500
CNC(=O)[C@@H](Cc1c[nH]c2ccccc12)Nc1cc(-c2cncc(F)c2)nc2c(C)cnn12 [I-189] | > 1500
Cc1cnn2c(N[C@H](Cc3c[nH]c4ccccc34)C(N)=O)cc(-c3cncc(F)c3)nc12 [I-190a] | > 1500
Cc1cnn2c(NC(Cc3c[nH]c4ccccc34)C(N)=O)cc(-c3cncc(F)c3)nc12 (stereo not drawn) [I-190b] | > 1500
Fc1cncc(-c2cc(NCCc3c[nH]c4cccnc34)n3ncc(Br)c3n2)c1 [I-192, 3-Bromo-5-(5-fluoro-3-pyridyl)-N-[2-(1H-pyrrolo[3,2-b]pyridin-3-yl)ethyl]pyrazolo[1,5-a]pyrimidin-7-amine] | 500 to 1000
Cc1cnn2c(NCCc3ccnc(O)c3)cc(-c3cncc(F)c3)nc12 [I-193] | > 1500
Cc1cnn2c(NCCc3ccc(O)nc3)cc(-c3cncc(F)c3)nc12 [I-194] | > 1500
Cc1cnn2c(NCCc3ccc(NS(C)(=O)=O)cc3)cc(-c3cncc(F)c3)nc12 [I-195, N-[4-[2-[[5-(5-Fluoro-3-pyridyl)-3-methyl-pyrazolo[1,5-a]pyrimidin-7-yl]amino]ethyl]phenyl]methanesulfonamide] | > 1500
OCc1cnn2c(NCCc3c[nH]c4ccccc34)cc(-c3cncc(F)c3)nc12 [I-197, [5-(5-Fluoro-3-pyridyl)-7-[2-(1H-indol-3-yl)ethylamino]pyrazolo[1,5-a]pyrimidin-3-yl]methanol] | < 500
C[C@H](O)c1cnn2c(N[C@@H]3CCc4[nH]c5ccccc5c4C3)cc(-c3cncc(F)c3)nc12 [I-198b, (1S)-1-[5-(5-fluoro-3-pyridyl)-7-[[(3R)-2,3,4,9-tetrahydro-1H-carbazol-3-yl]amino]pyrazolo[1,5-a]pyrimidin-3-yl]ethanol] | 500 to 1000
CN(C)c1cnn2c(N[C@@H]3Cc4ccc(O)cc4C3)cc(-c3cncc(F)c3)nc12 [I-204a, (2R)-2-[[3-(dimethylamino)-5-(5-fluoro-3-pyridyl)pyrazolo[1,5-a]pyrimidin-7-yl]amino]indan-5-ol] | < 500
CC(=O)Nc1ccc(CCNc2cc(-c3cncc(F)c3)nc3c(C)cnn23)cc1 [I-206] | > 1500
Cc1cnn2c(NCCc3c[nH]cn3)cc(-c3cncc(F)c3)nc12 [I-207] | > 1500
Cc1cnn2c(NCCc3cccc(O)c3)cc(-c3cncc(F)c3)nc12 [I-210, 3-[2-[[5-(5-fluoro-3-pyridyl)-3-methyl-pyrazolo[1,5-a]pyrimidin-7-yl]amino]ethyl]phenol] | 1000 to 1500
Cc1cnn2c(NCCc3ccc(N)cc3)cc(-c3cncc(F)c3)nc12 [I-211, N-[2-(4-Aminophenyl)ethyl]-5-(5-fluoro-3-pyridyl)-3-methyl-pyrazolo[1,5-a]pyrimidin-7-amine] | > 1500

Results, then the compound that gave them:

IC50 [nM] | SMILES
> 1500 | CC(C)c1cnn2c(N[C@H]3CCc4[nH]c5c(F)cccc5c4C3)cc(-c3cncc(F)c3)nc12 [I-212]
< 500 | Cc1cnn2c(NCCc3ccc(O)cc3)cc(-c3cncc(F)c3)nc12 [I-213, 4-[2-[[5-(5-fluoro-3-pyridyl)-3-methyl-pyrazolo[1,5-a]pyrimidin-7-yl]amino]ethyl]phenol]
> 1500 | Cc1cnn2c(NCCc3c[nH]c4ccc(O)cc34)cc(-c3cncc(F)c3)nc12 [I-215, 3-[2-[[5-(5-Fluoro-3-pyridyl)-3-methyl-pyrazolo[1,5-a]pyrimidin-7-yl]amino]ethyl]-1H-indol-5-ol]
500 to 1000 | Cc1cnn2c(N[C@@H]3CCc4[nH]c5c(F)cccc5c4C3)cc(-c3cncc(F)c3)nc12 [I-216a, (3R)-8-Fluoro-N-[5-(5-fluoro-3-pyridyl)-3-methyl-pyrazolo[1,5-a]pyrimidin-7-yl]-2,3,4,9-tetrahydro-1H-carbazol-3-amine]
> 1500 | Cc1cnn2c(N[C@H]3CCc4[nH]c5c(F)cccc5c4C3)cc(-c3cncc(F)c3)nc12 [I-216b]
< 500 | Cc1cnn2c(NCCc3ccccc3)cc(-c3cncc(F)c3)nc12 [I-218, 5-(5-fluoro-3-pyridyl)-3-methyl-N-(2-phenylethyl)pyrazolo[1,5-a]pyrimidin-7-amine]
< 500 | CC(C)c1cnn2c(N[C@H]3Cc4ccc(O)cc4C3)cc(-c3cncc(F)c3)nc12 [I-220, (2S)-2-[[5-(5-fluoro-3-pyridyl)-3-isopropyl-pyrazolo[1,5-a]pyrimidin-7-yl]amino]indan-5-ol]
> 1500 | CC(C)c1cnn2c(NC3CCc4[nH]c5c(F)cccc5c4C3)cc(-c3cncc(F)c3)nc12 (stereo not drawn) [I-221]
< 500 | Cc1[nH]c2c(F)cccc2c1CCNc1cc(-c2cncc(F)c2)nc2c(C(=O)N3CCOCC3)cnn12 [I-225, [7-[2-(7-Fluoro-2-methyl-1H-indol-3-yl)ethylamino]-5-(5-fluoro-3-pyridyl)pyrazolo[1,5-a]pyrimidin-3-yl]-morpholino-methanone]
< 500 | Fc1cncc(-c2cc(NCCc3c[nH]c4ccccc34)n3ncc(C4CCCO4)c3n2)c1 (stereo not drawn) [I-226, 5-(5-Fluoro-3-pyridyl)-N-[2-(1H-indol-3-yl)ethyl]-3-tetrahydrofuran-2-yl-pyrazolo[1,5-a]pyrimidin-7-amine]
< 500 | CC(C)c1cnn2c(NCCc3c[nH]c4ccccc34)cc(-c3cccc4c3OCO4)nc12 [I-227, 5-(1,3-Benzodioxol-4-yl)-N-[2-(1H-indol-3-yl)ethyl]-3-isopropyl-pyrazolo[1,5-a]pyrimidin-7-amine]
> 1500 | CC(C)c1cnn2c(NC3CCc4[nH]c5ccccc5c4C3)cc(-c3cccc4c3OCO4)nc12 (stereo not drawn) [I-228]
> 1500 | CC(C)c1cnn2c(N[C@@H]3CCc4[nH]c5ccccc5c4C3)cc(-c3cncnc3)nc12 [I-229, (3R)—N-(3-Isopropyl-5-pyrimidin-5-yl-pyrazolo[1,5-a]pyrimidin-7-yl)-2,3,4,9-tetrahydro-1H-carbazol-3-amine]
< 500 | C=Cc1cnn2c(NCCc3c[nH]c4ccccc34)cc(-c3cncc(F)c3)nc12 [I-230, 5-(5-Fluoro-3-pyridyl)-N-[2-(1H-indol-3-yl)ethyl]-3-vinyl-pyrazolo[1,5-a]pyrimidin-7-amine]
> 1500 | NC(=O)c1cnn2c(NC3CCc4[nH]c5c(F)cccc5c4C3)cc(-c3cncc(F)c3)nc12 (stereo not drawn) [I-231]
< 500 | Cc1cnn2c(N[C@@H]3Cc4ccc(O)cc4C3)cc(-c3cncc(F)c3)nc12 [I-232, (2R)-2-[[5-(5-Fluoro-3-pyridyl)-3-methyl-pyrazolo[1,5-a]pyrimidin-7-yl]amino]indan-5-ol]
500 to 1000 | CC(C)n1cnc2c(NCCc3ccc(O)cc3)nc(-c3csc4ccccc34)nc21 [I-233]
